Test results reported in US10973780B2 (priority 2019, dated 2021).
Where a name gives a salt, the structure may show the parent alone. Read-outs that look alike come from different tables or passages of the source.

Key:
[1] = cited from earlier work
[2] = cited from earlier work; remark: listed apart in the source
[3] = cited from earlier work; remark: listed apart in the source
[4] = cited from earlier work; remark: listed apart in the source
[5] = cited from earlier work; remark: listed apart in the source
[6] = cited from earlier work; remark: listed apart in the source
[7] = rat, daily IV injections for 1 month; cited from earlier work
[8] = elevated pHs around 5.5; cited from earlier work
[9] = pH of ketamine formulations and ketamine HCl solutions; format: physicochemical

In the case of `CNC1(c2ccccc2Cl)CCCCC1=O` (centres unmarked) [ketamine, 2-(2-chlorophenyl)-2-(methylamino)cyclohexanone], the “Side Effects” value ([1]; Intramuscular) is listed as “High”, the “Side Effects” value ([1]; Intranasal) is listed as “High” and the “Side Effects” value ([1]; Intravenous) is listed as “Moderate”. The “Side Effects” value ([1]; Oral) was “Moderate”, the “Side Effects” value ([1]; Subcutaneous) was “Low” and the “Side Effects” value ([1]; Sublingual) was “Moderate”. For the same molecule, the “Bioavailability (grade)” value ([2]; Intramuscular) was “High”, the Bioavailability ([2]; Intranasal) was 25-50% and the “Bioavailability (grade)” value ([2]; Intranasal) was “Low”. The Bioavailability ([2]; Intravenous) was 100%, the “Bioavailability (grade)” value ([2]; Intravenous) was “Highest” and the Bioavailability ([2]; Oral) was 11-20%. The “Bioavailability (grade)” value ([2]; Oral) was “Very Low”, the Bioavailability ([2]; Subcutaneous) was greater than 90% and the “Bioavailability (grade)” value ([2]; Subcutaneous) was “High”. The Bioavailability ([2]; Sublingual) was 29%, the “Bioavailability (grade)” value ([2]; Sublingual) was “Low” and the “Metabolite Exposure” value ([3]; Intramuscular) was “Low”. The “Metabolite Exposure” value ([3]; Intranasal) was “High”, the “Metabolite Exposure” value ([3]; Intravenous) was “Low” and the “Metabolite Exposure” value ([3]; Subcutaneous) was “Low”. The “Metabolite Exposure” value ([3]; Sublingual) was “High”, the “increase in exposure to undesirable inflammatory metabolites” value ([3]; oral dosing to reach equivalence to a short IV or IM treatment) was “up to 9 fold” and the “increase in exposure to undesirable inflammatory metabolites” value ([3]; sublingual route) was 3 fold.

In the case of `CC(O)COC[C@H]1O[C@@H]2O[C@H]3[C@H](O)[C@@H](O)[C@@H](O[C@H]4[C@H](O)[C@@H](O)[C@@H](O[C@H]5[C@H](O)[C@@H](O)[C@@H](O[C@H]6[C@H](O)[C@@H](O)[C@@H](O[C@H]7[C@H](O)[C@@H](O)[C@@H](O[C@H]8[C@H](O)[C@@H](O)[C@@H](O[C@H]1[C@H](O)[C@H]2O)O[C@@H]8COCC(C)O)O[C@@H]7COCC(C)O)O[C@@H]6COCC(C)O)O[C@@H]5COCC(C)O)O[C@@H]4COCC(C)O)O[C@@H]3COCC(C)O` (stereo partly drawn) [HP-β-CD, hydroxypropyl-beta-cyclodextrin], the amount found safe ([4]; in vivo) is given as roughly 250 mg/kg/day.

For “sulfobutyl-ether-beta-cyclodextrin [SBE-β-CD]”, the amount found safe ([4]; 6 months, humans older than 2 years) is listed as roughly 250 mg/kg/day, the tolerability ([4]; infusion rates 292 to 4375 mg/min) is listed as “well-tolerated with no clinically relevant side effects or changes in renal biomarkers” and the osmolality ([5]; 20% solution, degree of substitution 6.5) is listed as 785 mOsm/kg. For the same molecule, the “concentration iso-osmotic with blood and extracellular fluid” value ([5]; according to the manufacturer) was 9.5-11.4%, the solubility [6] was 600 mg/mL and the NOEL [7] was 80 mg/kg.

In the case of `CNC1(c2ccccc2Cl)CCCCC1=O` (centres unmarked) [ketamine HCl, ketamine hydrochloride], the precipitation [8] is listed as “exhibit precipitation”, the pH ([9]; 100 mg/mL (ketamine freebase equivalent) in water) is listed as “around 4” and the “average pH” value ([9]; measured in USP bottles of ketamine 100 mg/mL) is listed as 3.74. The “average pH” value ([9]; solutions formed from powdered ketamine HCl) was 3.93.
